# Laboratory results from patent US8951529B2, “Methods of using small compounds to enhance myeloid derived suppressor cell function for treating autoimmune diseases” (Icahn School of Medicine at Mount Sinai, priority 2009, dated 2015).
# Key:
# DSS-induced colitis = DSS-induced colitis in vivo model; parameters: species or system C57BL/6 mice
# Description: In certain aspects, the invention is related to the treatment of IBDs. Mouse models of IBD are well known in the art, and may be used to model human IBDs. For example, dextran sodium sulfate (DSS) may be administered to mice to induce IBD. In this model, mice are fed with water containing 3.5% DSS from day 0 to day 11. Following treatment, mice develop colitis. The severity of colitis is quantified (assigned a clinical score) by assessing stool consistency, bleeding, and weight loss, which ranges from 0 (healthy) to 4 (maximal severity). Histologically, DSS produces submucosal erosions, ulceration, inflammatory cell infiltration and crypt abscess as well as epithelioglandular hyperplasia. […] [Kawada et al., 2007, World J. Gastroenterol. 13: 5581-5593; Okayasu et al., 1990, Gastroenterology 98:694-702]
# For adoptive transfer of MDSCs, 5×10^6 purified MDSCs suspended in PBS were administered by intravenous infusion at day 0 and day 7.
# Mice were left untreated or treated with sorted MDSCs (5×10^6 cells/mouse) alone or in combination with GA and/or SP600125 (Sigma-Aldrich), on the day of disease induction. […] The severity of colitis was quantitated as a clinical score by assessing stool consistency, bleeding, and weight loss, which ranges from 0 (healthy) to 4 (maximal severity). The clinical score (weight loss, stool consistency, and bleeding) of treated mice was assessed in a double-blind fashion.
# On day 11 post-IBD induction, colon tissues from treated mice were removed, fixed in 3% formaldehyde, sectioned, and stained with H&E staining to determine the pathology score of colitis. To reflect the general condition of the mice, a disease activity index (DAI) was determined by an investigator blinded to the protocol by scoring the extent of body weight loss, stool guaiac positivity or gross bleeding, and stool consistency according to the method described in Murthy et al. (1993) “Treatment of Dextran Sulfate Sodium-Induced Murine Colitis by Intracolonic Cyclosporin,” Digest. […] Stool consistency and the degree of blood in stool were evaluated on the day when animals were killed. […]
# normal CD115+ monocytes = experiment: Normal monocyte assay: Treg induction in co-culture with normal monocytes; type: cell-based, mouse; details: monocytes:CD4 OTII TCR splenocytes 1:4, five days, FIG. 2
# Description: CD115+ MDSCs and normal CD115+ monocytes were isolated from the bone marrows of tumor-bearing and naive Balb/c mice, respectively, and were co-cultured with CD4 OTII TCR transgenic splenocytes at a ratio of 1:4 in the absence or presence of GA, SP600125, or both.
# To verify whether the enhancement of suppressive activities (suppression of T-cell proliferation and Treg cell induction) by GA and SP600125 is specific to MDSCs, the Treg cell inducing activity of normal CD115+ monocytes from naive mice was analyzed in the presence of GA and SP600125.
# Gr-1+CD115+ MDSCs = experiment: Cytokine production by IFN-γ stimulated MDSCs (ELISA); type: cell-based, mouse; details: IFN-γ stimulation, 24 hours, FIG. 3A
# Experimental: Sorted Gr-1+CD115+ MDSCs from tumor-bearing mice were stimulated with IFN-γ in the absence or presence of GA, SP600125, or both. Twenty-four hours after stimulation, culture supernatants were collected and the concentrations of IL-10, TGF-β, IL-6, and IL-23 were determined by ELISA (R&D Systems).
# It was next determined whether GA, SP600125, or both exert an effect on cytokine production by MDSCs. Sorted Gr-1+CD115+ MDSCs from tumor-bearing mice were stimulated with IFN-γ in the absence or presence of GA, SP600125, or both. Twenty-four (24) hours after stimulation, culture supernatants were collected and the concentrations of IL-10, TGF-β, IL-6, and IL-23 were determined by ELISA (R&D Systems®). GA or SP600125 alone was capable of enhancing the secretion of IL-10 and TGF-β while decreasing IL-6 and IL-23 production by MDSCs in vitro (FIG. 3A).
# MLN T cells = experiment: MLN cell proliferation assay from IBD mice; type: in vivo, mouse; details: +PHA, 72 hours, [3H]-thymidine, day 11, DSS-treated mice, FIG. 7
# Experimental: On day 11 after IBD induction, mice were terminated, and MLN cells were isolated and cultured in the presence or absence of PHA. [3H]-thymidine was pulsed during the last 8 hours of 72-hour culture for the measurement of T cell proliferation.
# To assess the proliferative capability of T cells from treated mice, on day 11 following IBD induction, splenocytes and […] lymph node (MLN) cells from treated mice were stimulated with (+PHA) or without PHA (˜) for 72 hours. [3H]-thymidine was pulsed during the last 8 hours of 72-hour culture. […] The percentage of Treg cells is defined as the percent cells that are stained positive for CD4, CD25, and intracellular Foxp3.
# [1] = system: MDSCs derived from TRIF KO mice; details: OVA peptide, CD4 OVA TCR splenocytes, 5 days, FIG. 9D
# Experimental: TRIF is upstream of IRF-3. MDSCs derived from wild type or TRIF KO mice were cultured in the presence of OVA peptide and CD4 OVA TCR transgenic splenocytes for 5 days. Cells were stained with primary antibody specific for Foxp3, CD4 and CD25 and analyzed by flow cytometry.
substance,measurement,setting,value
"L-glutamic acid polymer with L-alanine, L-lysine and L-tyrosine, acetate (salt) [GA]",decrease in colonic length,"DSS-induced colitis; day 11, in comparison with naive healthy mice, FIG. 5C",45%
same,IBD clinical score,"DSS-induced colitis; scale 0-4, 3.5% DSS day 0 to 11, GA s.c., SP600125 i.p. daily, MDSCs 5×10^6 i.v. days 0 and 7, FIG. 5A",did not significantly lower
same,percentage of CD4+CD25+Foxp3+ Treg cells in the co-culture with normal monocytes,normal CD115+ monocytes,slightly increased
same,IL-6 production by MDSCs,Gr-1+CD115+ MDSCs,decreasing
same,IL-23 production by MDSCs,Gr-1+CD115+ MDSCs,decreasing
same,secretion of IL-10 by MDSCs,Gr-1+CD115+ MDSCs,enhancing
same,secretion of TGF-β by MDSCs,Gr-1+CD115+ MDSCs,enhancing
same,T-cell proliferation of MLN cells,MLN T cells,lower level
same,MDSC-mediated Treg cell induction in the absence of TRIF,[1],cannot enhance
